Measured values: patent US11261429B2, “Enriched and expanded human cord blood stem cells for treatment of hematological disorders” (ICAHN SCHOOL OF MEDICINE AT MOUNT SINAI, priority 2013, dated 2022)
“And” between values parts separate entries of the source, which are not always exact repeats. Equal values may be shown once.

Columns and labels:
[1] = system: SOX2; test: Pluripotency protein expression in re-isolated CD34+ cells, mAb staining and flow cytometry; assay type: cell-based, human; settings: 7 days
Description: (§1) PCs and re-isolated, cultured CD34+ cells from control cultures and cultures containing VPA were fixed with methanol-free formaldehyde (2.8%) for 10 minutes at 37° C., briefly chilled on ice, and permeabilized with 100% ice-cold methanol. Cells were further incubated on ice for 20 minutes and blocked with incubation buffer (PBS containing 0.5% BSA) for 10 minutes and stained for SOX2 and OCT4 with an FITC-conjugated mAb or isotype controls for an hour at room temperature. Cells were also stained with a rabbit mAb for NANOG, followed by an FITC-conjugated anti-rabbit secondary antibody, and cells were washed and analyzed by flow cytometry.

[2] = system: NANOG; test: as above; assay type: cell-based, human; settings: 7 days
Description: as §1

[3] = system: OCT4; test: as above; assay type: cell-based, human; settings: 7 days
Description: as §1

[4] = system: NSG mice; assay type: in vivo
Description: As described previously, NSG mice were sublethally irradiated with 300 cGy 4 hours prior to the infusion of PCs (2×10^5), and CD34+ cells re-isolated after a week of culture under control conditions or cultures containing VPA in the presence or absence of cytokines were injected into NSG mice via the tail vein (Milhem et al., “Modification of Hematopoietic Stem Cell Fate by 5aza 2′deoxycytidine and Trichostatin A,” Blood 103:4102-4110 (2004); Araki et al., “Expansion of Human Umbilical Cord Blood SCID-Repopulating Cells Using Chromatin-Modifying Agents,” Exp. Hematol. 34:140-149 (2006); Araki et al., “Chromatin-Modifying Agents Permit Human Hematopoietic Stem Cells to Undergo Multiple Celt Divisions While Retaining Their Repopulating Potential,” Blood 109:3570-3578 (2007), which are hereby incorporated by reference in their entirety). […] BM cells from each mouse were analyzed for the presence of cells expressing human CD45-PECy7 or APC, CD34-APC or FITC, CD36-APC, CD33-PECy7, CD14-FITC, CD19-PE, CD41-FITC, CD71-FITC, and glycophorin A-PE (GPA-PE). The presence of at least 0.1% human CD45+ cells in the marrow of each recipient mouse was considered indicative of donor human hematopoietic engraftment (Milhem et al., “Modification of Hematopoietic Stem Cell Fate by 5aza 2′deoxycytidine and Trichostatin A,” Blood 103:4102-4110 (2004); Araki et al., “Expansion of Human Umbilical Cord Blood SCID-Repopulating Cells Using Chromatin-Modifying Agents,” Exp. Hematol. 34:140-149 (2006); Araki et al., “Chromatin-Modifying Agents Permit Human Hematopoietic Stem Cells to Undergo Multiple Cell Divisions While Retaining Their Repopulating Potential,” Blood 109:3570-3578 (2007); Chaurasia et al., “Chromatin-Modifying Agents Promote the Ex vivo Production of Functional Human Erythroid Progenitor Cells,” Blood 117:4632-4641 (2011), which are hereby incorporated by reference in their entirety). BM cells (2×10^6) from the primary recipient NSG mice were reinfused into sublethally irradiated secondary NSG recipient mice. Mice were sacrificed 15-16 weeks after transplantation, and BM cells were stained with mAbs and analyzed by flow cytometry for evidence of human chimerism as described above.

[5] = system: HDAC5; test: HDAC protein levels in CB-MNCs, Western blot densitometry; assay type: cell-based, human; settings: 24 hr, SCR 8 μM, C433 80 μM, VPA 1.25 mM
Source text: (§2) Cellular proteins were separated by SDS-PAGE using Novex (Invitrogen) and transferred by iBlot (Invitrogen). The membranes were probed with mAbs against individual histone deacetylases (HDAC1, HDAC2, HDAC3, HDAC4, HDAC5, HDAC6, and β-actin; Cell Signaling Technology) and developed using a chemiluminescence system with HRP-conjugated secondary antibodies (Amersham Biosciences) according to the manufacturer's instructions.

[6] = system: CB CD34+ cells; test: Ex vivo expansion of CB CD34+ cells with HDACIs, phenotypic analysis by flow cytometry; assay type: cell-based, human; settings: VPA alone (no cytokines), SF, 7 days after 16 h priming
[7] = system: ALDH+CD34+ and ALDH-CD34+ cells; test: BFU-E + CFU-Mix generated from sorted ALDH+CD34+ and ALDH-CD34+ cells; assay type: cell-based, human
Source text: A far greater number of BFU-E+CFU-Mix were generated from ALDH+CD34+ cells generated in the presence of each of the HDACI in SF cultures as compared with SC cultures (ANOVA, p=0.001). By contrast, a greater number of BFU-E+CFU-Mix were generated from ALDH-CD34+ cells in SC cultures as compared to SF cultures. Mean±SE, ANOVA, p=0.01 (n=3).
Purified ALDH+CD34+ cells generated using SF cultures supplemented with VPA generated greater absolute numbers of BFU-E and CFU-Mix (8.4×10^7±6.7×10^7/CB collection) as compared to SC cultures (1.4×10^7±0.88×10^7; ANOVA, p=0.001) (FIG. 20A). By contrast, ALDH-CD34+ cells from SC cultures supplemented with VPA generated greater numbers of BFU-E and CFU-Mix (2.7×10^6±1.0×10^6) as compared to SF cultures (3.5×10^5±0.78×10^5) (ANOVA, p=0.01) (FIG. 20B).

[8] = system: HDAC6; test: HDAC protein levels in CB-MNCs, Western blot densitometry; assay type: cell-based, human; settings: 24 hr, SCR 8 μM, C433 80 μM, VPA 1.25 mM
Source text: as §2

[9] = system: class I and II HDAC; test: HDAC protein levels in CB-MNCs, Western blot, all HDACs examined; assay type: cell-based, human; settings: after 2 hours of treatment
Source text: as §2

[10] = system: HDAC1; test: HDAC protein levels in CB-MNCs, Western blot densitometry; assay type: cell-based, human; settings: 24 hr, SCR 8 μM, C433 80 μM, VPA 1.25 mM
[11] = VPA alone (no cytokines), SF, 12-13 weeks
[12] = cells cultured with cytokines plus VPA, SF, 13-14 weeks after transplantation
[13] = SC cultures supplemented with VPA
[14] = SF cultures supplemented with VPA

Compound: CCCC(CCC)C(=O)O [VPA, valproic acid]
- percentage of CD34+ cells expressing SOX2 ([1]; SC cultures): 3.9 ± 1.9^A %
- percentage of CD34+ cells expressing SOX2 ([1]; SF cultures): 23.1 ± 6.5^A %
- percentage of CD34+ cells expressing NANOG ([2]; SC cultures): 5.6 ± 1.4^A %
- percentage of CD34+ cells expressing NANOG ([2]; SF cultures): 57.6 ± 6.8^A %
- percentage of CD34+ cells expressing OCT4 ([3]; SC cultures): 8.2 ± 1.7^A %
- percentage of CD34+ cells expressing OCT4 ([3]; SF cultures): 32.9 ± 3.8^A %
- % Human Cell Engraftment in Primary NSG Mice, CD14 [4, 11]: 2.1 ± 0.2 %
- % Human Cell Engraftment in Primary NSG Mice, CD19 [4, 11]: 1.9 ± 1.1%
- % Human Cell Engraftment in Primary NSG Mice, CD33 [4, 11]: 3.5 ± 0.6 %
- % Human Cell Engraftment in Primary NSG Mice, CD34 [4, 11]: 1.6 ± 0.4 %
- % Human Cell Engraftment in Primary NSG Mice, CD41 [4, 11]: 0.90 ± 0.6%
- % Human Cell Engraftment in Primary NSG Mice, CD45 [4, 11]: 12.5%±5.0% and 12.5 ± 2.2%
- % Human Cell Engraftment in Primary NSG Mice, GPA [4, 11]: 9.8 ± 0.8%
- CD45+CD34+ cells in marrow of primary NSG mice [4, 12]: 13.0%±8.7%
- human CD45+ cell chimerism in marrow of primary NSG mice [4, 12]: 32.2%±11.3% and 32.3±10.2%
- donor-derived CD34+ cells coexpressing CD184 in marrow ([4]; cells cultured with cytokines plus VPA, SF, primary NSG mice): 9.9%±9.6%
- blood cancer or teratomas in primary or secondary recipients ([4]; mouse, in vivo): None of the primary or secondary recipients of marrow cells receiving VPA-treated grafts developed evidence of blood cancer or developed teratomas
- HDAC5 expression relative to b-ACTIN (%) [5]: 21.4 ± 10.7%
- fold expansion of CD34+ cells per CB collection [6]: 9.0 fold
- fold expansion of CD34+CD90+ cells per CB collection [6]: 486 fold
- absolute numbers of BFU-E and CFU-Mix from ALDH+CD34+ cells [7, 13]: 1.4×10^7±0.88×10^7
- numbers of BFU-E and CFU-Mix from ALDH-CD34+ cells [7, 13]: 2.7×10^6±1.0×10^6
- absolute numbers of BFU-E and CFU-Mix from ALDH+CD34+ cells [7, 14]: 8.4×10^7±6.7×10^7 /CB collection
- numbers of BFU-E and CFU-Mix from ALDH-CD34+ cells [7, 14]: 3.5×10^5±0.78×10^5
- HDAC6 expression relative to b-ACTIN (%) [8]: 54.2 ± 7.9%
- inhibition of HDAC expression [9]: did not inhibit HDAC expression
- HDAC1 expression relative to b-ACTIN (%) [10]: 25.48 ± 7.78%
